# Results reported in ChEMBL document CHEMBL4033689, “Potential inhibitors of human carbonic anhydrase isozymes I and II: Design, synthesis and docking studies of new 1,3,4-thiadiazole derivatives” (Bioorg Med Chem, 2017).
# Molecular target: Carbonic anhydrase 2 (Homo sapiens, UniProt P00918)
# Test: Inhibition of carbonic anhydrase-2 in […] assessed as reduction in H+ release using CO2 as substrate by bromine thymol blue indicator based assay; call rule not given here
row,Structure (SMILES),IC50
1,O=C(CSc1nnc(Nc2ccccc2)s1)N/N=C/c1ccc(-c2ccc(Cl)c(Cl)c2)o1,Not Active
2,O=C(CSc1nnc(Nc2ccccc2)s1)N/N=C/c1ccc(-c2ccc([N+](=O)[O-])cc2)o1,Not Active
3,O=C(CSc1nnc(Nc2ccccc2)s1)N/N=C/c1ccc(-c2ccc(Cl)cc2[N+](=O)[O-])o1,Not Active
